Patent publication US9738884B2, “Therapeutic agent for epithelial and endothelial injury” (NIHON UNIVERSITY, priority 2012, dated 2017)

System: pulmonary edema model mice
Experiment: LPS-induced pulmonary edema model mice, lung weight/body weight (Example 10, Experiment 1)
Assay type: in vivo
Settings: 350 ng/body weight (g) intravenous, three hours after LPS 100 μg/body weight (g) intravenous
From the text: FIG. 10 is a graph showing the results of Experiment 1 in Example 10 of the present application, namely, the results regarding therapeutic effects on pulmonary edema (the effect of reducing the amount of lung water). In the graph, “Control” indicates normal mice, “LPS” indicates an “LPS (lipopolysaccharide)+control peptide (SEQ ID NO: 26)” administration group, and “LPS/Peptide” indicates an “LPS (lipopolysaccharide)+therapeutic peptide (SEQ ID NO: 25)” administration group. In addition, the numerical value of the vertical axis in the graph indicates the ratio of the weight (g) of lung to the body weight (g) of each mouse (lung weight (g)/body weight (g)).
The therapeutic effects of the peptide of the present invention on model mice with pulmonary edema, which were caused by septicemia, disseminated intravascular coagulation syndrome (DIC) or acute respiratory distress syndrome (ARDS), were confirmed. […]
A comparison experiment was carried out on a normal mouse group (healthy mice), an “LPS (lipopolysaccharide; endotoxin)+control peptide (SEQ ID NO: 26)” administration group, and an “LPS+therapeutic peptide (SEQ ID NO: 25)” administration group (7 mice/each group). […] Thereafter, the lung was removed from the mice in each group, and the weight of each lung was measured. The ratio of the weight (g) of the lung to the body weight (g) (lung weight (g)/body weight (g)) was calculated.

AETVFSNMDYENSTEAVFIQDDITKKKKKK [SEQ ID NO: 25]
reduction of the LPS-increased amount of lung weight: 72%
